Reference: PubChem BioAssay AID1919004 (Molecular Pharmacology Branch, DTP, NCI, 2023)
Several values for one entry are separate records, joined by “and”; a condition that tells them apart may be missing. Equal entries are not always repeated.

Tested on: 883617-216-R-J1-PDC complex spheroids, growth, % test/control
Test: Anticancer human tumor 883617-216-R-J1-PDC patient-derived bladder carcinoma cell line growth inhibition [AhR]
Conditions: for viability, T/C: stronger effect = lower value; active = viability on the fitted dose curve at most 10% of control; inactive = the rest
Description: Multicellular complex tumor spheroid response to aryl hydrocarbon receptor antagonists in combination with a variety of drugs and investigational agents in selected tumor cell lines
The current study was undertaken to assess response to aryl hydrocarbon receptor antagonists in combination with standard-of-care drugs and investigational agents in solid tumor complex spheroid models. Complex spheroids include a stromal component modeled by human endothelial cells (HUVEC) and fibroblasts modeled by human mesenchymal stem cells (MSCs). The concentration ranges selected for each drug and investigational agent were based upon clinically achievable concentrations if the clinical Cmax of the agent was known.
Compounds. The drugs and investigational agents: BAY 2416964 (NSC825713), GNF351 (NSC835774), CH-223191 (NSC835775), CPI-455 (NSC825282), aza-TdCyd (NSC777586), decitabine (NSC127716), belinostat (NSC758774), entinostat (NSC756642), pevonedistat (NSC761192), tazemetostat (NSC777109), talazoparib (NSC765396), olaparib (NSC753686), selinexor (NSC780203), nedisertib (M3814, NSC802822), bortezomib (NSC756655), venetoclax (NSC766270), doxorubicin (NSC123127), elimusertib (BAY189344, NSC800525), ceralasertib (AZD6738, NSC777638), TAK-243 (NSC785004), alisertib (NSC759677), etoposide (NSC141540), topotecan (NSC609699), eribulin (NSC707389), gemcitabine (NSC613327), carboplatin (NSC241240), cisplatin (NSC119875), and SN-38 (NSC673596) were obtained from the National Cancer Institute (NCI) Developmental Therapeutics Program Chemical Repository (32). The FDA-approved anticancer drug set is available from the Developmental Therapeutics Program at https://dtp.cancer.gov/organization/dscb/obtaining/available plates.htm. […] The stock solutions were prepared in dimethyl sulfoxide (DMSO, Sigma-Aldrich, St. Louis, MO, cat. D2650), except for the platinum compounds which were prepared in saline (Quality Biological, Gaithersburg, MD, cat. 114-055-101), at 800-fold the tested concentration and stored at -70 degrees C prior to their use. All drugs and investigational agents were tested over a range starting from a high concentration at or near the clinical Cmax and decreasing in half-log increments. If the clinical Cmax for an agent had not been determined, the highest concentration tested was 10 microM (Table 1).
Cell Culture. All cells were maintained in an incubator at 37 degrees C and 5% CO2 with 95% humidity. The PDC lines were cultured according to standard operating procedures established by the NCI PDMR (https://pdmr.cancer.gov). Briefly, all PDCs were thawed and cultured in Matrigel-coated flasks prepared with a working solution of 1X Ham's F-12 nutrient mix, without supplementation (Invitrogen, Waltham, MA, cat. 11765054), 100 U/mL penicillin-streptomycin (Invitrogen, cat. 15140122), and 2.5% Matrigel (Corning Inc., Corning, NY, cat. 354248) for the first three passages. All PDCs were cultured in complete DMEM/F-12 media containing advanced DMEM/F-12 (Invitrogen, cat. 12634028), 4.9% defined fetal bovine serum, heat inactivated (HyClone Laboratories Inc., Logan, UT, cat. SH30070.03HI), 389 ng/mL hydrocortisone (Sigma-Aldrich, cat. H4001), 9.7 ng/mL human EGF recombinant protein (Invitrogen, cat. PHG0313), 23.4 microg/mL adenine (Sigma-Aldrich, cat. A2786), 97.3 U/mL penicillin-streptomycin (Invitrogen, cat. 15140122), 1.9 mM L-glutamine (Invitrogen, cat. 25030081), and 9.7 microM Y-27632 dihydrochloride (Tocris Bioscience, Bristol, United Kingdom, cat. 1254). The PDCs were cultured in complete DMEM/F12 media without 10 microM Y-27632 dihydrochloride for at least two passages prior to the screen. The established cell lines NCI-H1341 and […] were cultured in DMEM/F-12, HEPES (Invitrogen, cat. 11330032), 5% defined fetal bovine serum (HyClone Laboratories Inc., cat. SH30070.03), ITS premix universal culture supplement [insulin (5 microg/mL), transferrin (5 microg/mL), and selenious acid (5 ng/mL)] […]

[1] = curve of first compound, second compound 0.1 µM
[2] = curve of first compound, second compound 0.316 µM
[3] = curve of first compound, second compound 1 µM
[4] = curve of first compound, second compound 3.16 µM
[5] = curve of first compound, second compound 10 µM
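Also: exposure lasted 7 days after dosing on day 3 of spheroid growth.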

CCN(c1cc(-c2ccc(CN3CCOCC3)cc2)cc(C(=O)NCc2c(C)cc(C)[nH]c2=O)c1C)C1CCOCC1 + Cc1ccccc1N=Nc1ccc(NC(=O)c2ccnn2C)c(C)c1
> 3000 nM: IC50 [1] | IC50 [2] | IC50 [3] | IC50 [4] | IC50 [5]
inactive: viability, T/C (second compound 0.1 µM, first compound 0.00949 µM) 88.3% | viability, T/C (second compound 0.1 µM, first compound 0.03 µM) 100% | viability, T/C (second compound 0.1 µM, first compound 0.0949 µM) 88.5% | viability, T/C (second compound 0.1 µM, first compound 0.3 µM) 91.7% | viability, T/C (second compound 0.1 µM, first compound 0.949 µM) 80.3% | viability, T/C (second compound 0.1 µM, first compound 3 µM) 84.3% | viability, T/C (second compound 0.316 µM, first compound 0.00949 µM) 83.3% | viability, T/C (second compound 0.316 µM, first compound 0.03 µM) 91.5% | viability, T/C (second compound 0.316 µM, first compound 0.0949 µM) 86.4% | viability, T/C (second compound 0.316 µM, first compound 0.3 µM) 85.3% | viability, T/C (second compound 0.316 µM, first compound 0.949 µM) 88.3% | viability, T/C (second compound 0.316 µM, first compound 3 µM) 86.1% | viability, T/C (second compound 1 µM, first compound 0.00949 µM) 80.7% | viability, T/C (second compound 1 µM, first compound 0.03 µM) 82.2% | viability, T/C (second compound 1 µM, first compound 0.0949 µM) 84% | viability, T/C (second compound 1 µM, first compound 0.3 µM) 78.3% | viability, T/C (second compound 1 µM, first compound 0.949 µM) 82.8% | viability, T/C (second compound 1 µM, first compound 3 µM) 96.4% | viability, T/C (second compound 3.16 µM, first compound 0.00949 µM) 75.8% | viability, T/C (second compound 3.16 µM, first compound 0.03 µM) 84.5% | viability, T/C (second compound 3.16 µM, first compound 0.0949 µM) 83.4% | viability, T/C (second compound 3.16 µM, first compound 0.3 µM) 85.5% | viability, T/C (second compound 3.16 µM, first compound 0.949 µM) 88.4% | viability, T/C (second compound 3.16 µM, first compound 3 µM) 79.2% | viability, T/C (second compound 10 µM, first compound 0.00949 µM) 80% | viability, T/C (second compound 10 µM, first compound 0.03 µM) 86.1% | viability, T/C (second compound 10 µM, first compound 0.0949 µM) 75.6% | viability, T/C (second compound 10 µM, first compound 0.3 µM) 75.2% | viability, T/C (second compound 10 µM, first compound 0.949 µM) 77.6% | viability, T/C (second compound 10 µM, first compound 3 µM) 81.4%

CC[C@@]1(O)C(=O)OCc2c1cc1n(c2=O)Cc2cc3c(CN(C)C)c(O)ccc3nc2-1
inactive: viability, T/C (compound 0.000316 µM) 92.8% and 94.7% and 101% | viability, T/C (compound 0.001 µM) 108% and 116% and 99.4% | viability, T/C (compound 0.00316 µM) 90.1% and 89.1% and 94.2% | viability, T/C (compound 0.01 µM) 88.6% and 87.3% and 75.8% | viability, T/C (compound 0.0316 µM) 71% and 95.2% and 80.3% | viability, T/C (compound 0.1 µM) 67.6% and 80.6% and 70.9%
> 100 nM: IC50 (curve of compound)

COc1cccc2c1C(=O)c1c(O)c3c(c(O)c1C2=O)CC(O)(C(=O)CO)CC3OC1CC(N)C(O)C(C)O1 (configuration not stated) + Cc1ccccc1N=Nc1ccc(NC(=O)c2ccnn2C)c(C)c1
339 nM: IC50 [3]
inactive: viability, T/C (second compound 0.1 µM, first compound 0.0316 µM) 66.5% | viability, T/C (second compound 0.1 µM, first compound 0.1 µM) 60.6% | viability, T/C (second compound 0.1 µM, first compound 0.316 µM) 48.4% | viability, T/C (second compound 0.1 µM, first compound 1 µM) 22.7% | viability, T/C (second compound 0.316 µM, first compound 0.0316 µM) 67.5% | viability, T/C (second compound 0.316 µM, first compound 0.1 µM) 61.3% | viability, T/C (second compound 0.316 µM, first compound 0.316 µM) 47.5% | viability, T/C (second compound 0.316 µM, first compound 1 µM) 16.7% | viability, T/C (second compound 1 µM, first compound 0.0316 µM) 56.8% | viability, T/C (second compound 1 µM, first compound 0.1 µM) 63.4% | viability, T/C (second compound 1 µM, first compound 0.316 µM) 51.5% | viability, T/C (second compound 1 µM, first compound 1 µM) 16.5% | viability, T/C (second compound 3.16 µM, first compound 0.0316 µM) 66.5% | viability, T/C (second compound 3.16 µM, first compound 0.1 µM) 56% | viability, T/C (second compound 3.16 µM, first compound 0.316 µM) 48.7% | viability, T/C (second compound 3.16 µM, first compound 1 µM) 11.9% | viability, T/C (second compound 10 µM, first compound 0.0316 µM) 58.6% | viability, T/C (second compound 10 µM, first compound 0.1 µM) 57.3% | viability, T/C (second compound 10 µM, first compound 0.316 µM) 57.8%
258 nM: IC50 [4]
255 nM: IC50 [2]
284 nM: IC50 [1]
380 nM: IC50 [5]
active: viability, T/C (second compound 0.1 µM, first compound 3.16 µM) 0.11% | viability, T/C (second compound 0.1 µM, first compound 10 µM) 0.14% | viability, T/C (second compound 0.316 µM, first compound 3.16 µM) 0.12% | viability, T/C (second compound 0.316 µM, first compound 10 µM) 0.15% | viability, T/C (second compound 1 µM, first compound 3.16 µM) 0.12% | viability, T/C (second compound 1 µM, first compound 10 µM) 0.65% | viability, T/C (second compound 3.16 µM, first compound 3.16 µM) 0.12% | viability, T/C (second compound 3.16 µM, first compound 10 µM) 0.5% | viability, T/C (second compound 10 µM, first compound 1 µM) 8.97% | viability, T/C (second compound 10 µM, first compound 3.16 µM) 0.18% | viability, T/C (second compound 10 µM, first compound 10 µM) 0.21%
